The results in this text go back to patent publication US20100159007A1, “PHARMACEUTICAL COMPOSITIONS FOR TRANSMUCOSAL DELIVERY OF A THERAPEUTICALLY ACTIVE AGENT ON THE BASIS OF SUBMICRON PARTICLES” (PHARMAKODEX LIMITED, priority 2006, published 2010).

Molecules are shown by their SMILES. Converted amounts (≈) assume the structure as drawn.

Series [1] is described as follows: Stability of sumatriptan in receiver fluid. Type of series: physicochemical. Particulars: 48 hours. As to the method: [table] […] The stability of the raw drug (sumatriptan) in the receiver fluid was determined when stored at 4° C., 25° C., 37° C. and −20° C. over a period of 48 hours.
A short description of series [2]: Franz cell permeation and mass balance. The series is classed as in vitro ADME, pig. Here is the method: [table] […] A permeation study was performed in order to investigate over what period of time a quantifiable amount of drug could be detected in the receiver fluid. Individually calibrated Franz cells with an average surface area and volume of approximately 0.6 cm^2 and 2 ml respectively were employed to determine the permeation of sumatriptan from the submicron particle formulation. The oral pig mucosa was mounted between two halves of the Franz cell with the mucosal side facing the donor compartment. The receptor compartment 22, having a clamp attachment lug 24, was filled with receiver fluid 27 (10% ethanol in PBS), stirred constantly with a PTFE-coated magnetic follower driven by submersible magnetic stirrer and maintained at 37° C. in a water bath. Approximately 5 mg of each formulation 26 was placed into the donor compartment 21 and the donor compartment was covered with Parafilm® throughout the study. Following the application of the drug formulation, the receiver fluid 27 (200 μl) was removed from the receiver compartment 22 via the sampling arm 25 after, e.g. 1, 2, 4, 6, 24 and 48 hours and analysed via HPLC. Each removed sample was replaced by an equal volume of fresh pre-warmed (37° C.) receiver fluid. At the end of the experiment, a mass balance investigation was performed as follows: A. Surface drug (S), the surface of the oral mucosa containing each formulation was wiped carefully using a sequence of dry and wet cotton buds. Collectively, the cotton buds from each Franz cell were immersed into glass vials containing 5 ml of receiver fluid. The vials were placed in an oscillating shaker and left overnight. An aliquot of 1 ml of the sample was then removed and analysed via HPLC. B. The oral mucosa was placed into a glass vial containing 5 ml of receiver fluid, and placed on a shaker at room temperature overnight. An aliquot of 1 ml of the sample was then removed and analysed via HPLC. C. Franz cell receptor compartment interface (joining section with donor) was swabbed with cotton buds. Collectively, the cotton buds from each Franz cell were immersed into a glass vial containing 5 ml receiver fluid. The vials were then placed in an oscillating shaker and left overnight. An aliquot of 1 ml of the sample was then removed and analysed via HPLC. D. Franz cell donor compartment interface (joining section with receptor) and internal face of the donor compartment was swabbed with cotton buds. Collectively, the cotton buds from each Franz cell were immersed into a glass vial containing 5 ml receiver fluid. The vials were then placed in an oscillating shaker and left overnight. An aliquot of 1 ml of the sample was then removed and analysed via HPLC. This experiment was carried out with the submicron sumatriptan formulation (a remade batch corresponding to Example 1A, batch 25#37/01) (n=6), pure unprocessed sumatriptan (n=3) and blank (n=2), i.e. cells with no formulation applied. […] Test Item 1 is the 40% sumatriptan submicron particle formulation (approximately 5 mg applied to the surface of the mucosa, n=6±SD), Test Item 2 is the unprocessed sumatriptan raw material (approximately 5 mg applied to the surface of the mucosa, n=3±SD) and the Blank is no Test Item applied (n=2).

Series [3] can be described thus: Solubility of sumatriptan in receiver fluid. The series is classed as physicochemical. Particulars: receiver fluid (10% ethanol in PBS), aqueous with cosolvent or surfactant or cyclodextrin; 10% ethanol in PBS (receiver fluid); read-out: maximum solubility.

For orientation: solubility means the dissolved amount per volume that the medium holds. For the compound `CNS(=O)(=O)Cc1ccc2[nH]cc(CCN(C)C)c2c1` [sumatriptan], the “Peak area (stability in receiver fluid)” value in series [1] (1 μg/ml, 4° C.) was found to be 9366; in series [1] (1 μg/ml, 25° C.) it was 9415; in series [1] (1 μg/ml, 37° C.), 7094; in series [1] (1 μg/ml, −20° C.), 9514; in series [1] (50 μg/ml, 4° C.) it was 469462; in series [1] (50 μg/ml, 25° C.), 470115. For the same compound, the “Peak area (stability in receiver fluid)” value in series [1] (50 μg/ml, 37° C.) was found to be 473418; in series [1] (50 μg/ml, −20° C.) it was 467385. Also, the “% recovered compared to what was applied” value came to 1.49% in series [2] (Donor); 8.10% in series [2] (Mucosa); 5.37% in series [2] (Plunger); 0.28% in series [2] (Receptor); 49.33% in series [2] (Surface); 29.86% in series [2] (Total amount in receiver fluid). Moreover, the Sumatriptan recovered in series [2] (Donor) stood at 95.9 µg; in series [2] (Mucosa), 522 µg; in series [2] (Plunger), 346 µg; in series [2] (Receptor), 18.2 µg; in series [2] (Surface) it was 3180 µg; in series [2] (Total amount in receiver fluid, approximately 5 mg applied) it was 1920 µg. For the same compound, in series [2] (pig, 5 mg, mass balance, based on weight of formulation applied, read-out: total amount recovered compared to the theoretical recovery, Mean), the recovery worked out at 94.4%. In addition, in series [3], the solubility was found to be 1930 µg/mL (≈ 6.54 mM).
